Results as given in patent publication US7777035B2, “Azaindazole compounds and methods of use” (Chemocentryx, Inc., priority 2005, dated 2010).

Molecular target: T1, CCR1 (Homo sapiens, UniProt P32246)
T1 construct: host or cells: THP-1 cells or monocytes isolated from human buffy coats
T1 sequence (P32246 1-355): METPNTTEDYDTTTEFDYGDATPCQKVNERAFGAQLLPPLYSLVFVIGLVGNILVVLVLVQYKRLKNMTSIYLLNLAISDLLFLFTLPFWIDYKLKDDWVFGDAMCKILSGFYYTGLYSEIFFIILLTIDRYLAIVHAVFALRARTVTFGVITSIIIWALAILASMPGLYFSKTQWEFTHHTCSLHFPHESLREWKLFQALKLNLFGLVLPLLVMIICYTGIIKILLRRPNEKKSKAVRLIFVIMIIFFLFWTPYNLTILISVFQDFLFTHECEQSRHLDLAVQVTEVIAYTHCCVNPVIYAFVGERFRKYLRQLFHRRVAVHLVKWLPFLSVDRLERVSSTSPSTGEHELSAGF
Test: CCR1 chemotaxis assay or binding assay (activity given for either)
Details: either the chemotaxis assay or binding assay; CCR1 expressing cells (THP-1 or human monocytes); read-out: Activity (IC50 class)
Description: Cells were grown under 5% CO2/95% air, 100% humidity at 37° C. and subcultured twice weekly at 1:5 (cells were cultured at a density range of 2×10^5 to 2×10^6 cells/mL) and harvested at 1×10^6 cells/mL. THP-1 cells express CCR1 and can be used in CCR1 binding and functional assays.
Monocytes were isolated from human buffy coats using the Miltenyi bead isolation system (Miltenyi, Auburn, Calif.). Briefly, following a Ficoll gradient separation to isolate peripheral blood mononuclear cells, cells were washed with PBS and the red blood cells lysed using standard procedures. Remaining cells were labeled with anti-CD14 antibodies coupled to magnetic beads (Miltenyi Biotech, Auburn, Calif.). Labeled cells were passed through AutoMACS (Miltenyi, Auburn, Calif.) and positive fraction collected. Monocytes express CCR1 and can be used in CCR1 binding and functional assays.
CCR1 expressing cells were centrifuged and resuspended in assay buffer (20 Mm HEPES pH 7.1, 140 Mm NaCl, 1 Mm CaCl2, 5 Mm MgCl2, and with 0.2% bovine serum albumin) to a concentration of 5×10^6 cells/mL for THP-1 cells and 5×10^5 for monocytes. Binding assays were set up as follows. […] Reactions were aspirated onto GF/B glass filters pre-soaked in 0.3% polyethyleneimine (PEI) solution, on a vacuum cell harvester (Packard Instruments; Meriden, Conn.). Scintillation fluid (40 μl; Microscint 20, Packard Instruments) was added to each well, the plates were sealed and radioactivity measured in a Topcount scintillation counter (Packard Instruments). Control wells containing either diluent only (for total counts) or excess MIP-1α or MIP-1β (1 μg/mL, for non-specific binding) were used to calculate the percent of total inhibition for compound. The computer program Prism from GraphPad, Inc. (San Diego, Calif.) was used to calculate IC50 values.
Chemotaxis assays were performed using 5 ┌ m pore polycarbonate, polyvinylpyrrolidone-coated filters in 96-well chemotaxis chambers (Neuroprobe; Gaithersburg, Md.) using chemotaxis buffer (Hank's balanced salt solution (HBSS) and 1% FBS). CCR1 chemokine ligands (i.e., MIP-1α, CCL15/Leukotactin; R&D Systems; Minneapolis, Minn.) are use to evaluate compound mediated inhibition of CCR1 Mediated migration. Other chemokines (i.e., SDF-1α; R&D Systems; Minneapolis, Minn.) are used as specificity controls. […] The chambers were incubated 1-2 hours at 37° C., and the number of cells in the lower chamber quantified either by direct cell counts in five high powered fields per well or by the CyQuant assay (Molecular Probes), a fluorescent dye method that measures nucleic acid content and microscopic observation.
THP-1 cells and monocytes lack other chemokine receptors that bind the same set of chemokine ligands as CCR1 (i.e., MIP-1α, MPIF-1, Leukotactin, etc.). Equal numbers of cells were added to each well in the plate. The cells were then incubated with radiolabeled MIP-1α. Unbound ligand was removed by washing the cells, and bound ligand was determined by quantifying radioactive counts. […] Percent inhibition was determined by the equation: […]
In the assay, the amount of compound was varied; while cell number and ligand concentration were held constant.
One of the primary functions of chemokines is their ability to mediate the migration of chemokine receptor-expressing cells, such as white blood cells. […] THP-1 Myelomonocytic leukemia cells, which resemble monocytes, as wells as freshly isolated monocytes, were used as targets for chemoattraction by CCR1 chemokine ligands (i.e., MIP-1α, CCL15/leukotactin). […] In this assay, the amount of compound was varied; while cell number and chemokine agonist concentrations were held constant. After the chemotaxis chambers were incubated 1-2 hours at 37° C., the responding cells in the lower chamber were quantified by labeling with the CyQuant assay (Molecular Probes), a fluorescent dye method that measures nucleic acid content, and by measuring with a Spectrafluor Plus (Tecan).

SMILES | IC50
COc1cc(N2CCN(C(=O)Cn3ncc4cccnc43)[C@@H](C)C2)c(F)cc1Cl [Compound 1.001] | < 1 µM
COc1cc(N2CCN(C(=O)Cn3cc4cccnc4n3)[C@@H](C)C2)c(F)cc1Cl [Compound 1.002] | < 1 µM
COc1cc(N2CCN(C(=O)Cn3nc(N)c4cccnc43)[C@@H](C)C2)c(F)cc1Cl [Compound 1.003] | < 1 µM
COc1cc(N2CCN(C(=O)Cn3nc(Cl)c4cccnc43)CC2)ccc1Cl [Compound 1.004] | < 1 µM
COc1cc(N2CCN(C(=O)Cn3nc(C)c4cccnc43)[C@@H](C)C2)c(F)cc1Cl [Compound 1.005] | < 1 µM
COc1cc(N2CCN(C(=O)Cn3cc4cccnc4n3)CC2)ccc1Cl [Compound 1.006] | < 1 µM
COc1cc(N2CCN(C(=O)Cn3ncc4cccnc43)CC2)ccc1Cl [Compound 1.007] | < 1 µM
COc1cc(N2CCN(C(=O)Cn3ncc4cnccc43)[C@@H](C)C2)c(F)cc1Cl [Compound 1.008] | < 1 µM
COc1cc(N2CCN(C(=O)Cn3cc4ccncc4n3)[C@@H](C)C2)c(F)cc1Cl [Compound 1.009] | < 1 µM
COc1cc(N2CCN(C(=O)Cn3nc(-c4ccccn4)c4cccnc43)CC2)ccc1Cl [Compound 1.010] | < 1 µM
COc1cc(N2CCN(C(=O)Cn3nc(-c4nccs4)c4cccnc43)CC2)ccc1Cl [Compound 1.011] | 2.5 to 12.5 µM
COc1cc(N2CCN(C(=O)Cn3ncc4cccnc43)CC2)c(F)cc1Cl [Compound 1.012] | < 1 µM
COc1cc(N2CCN(C(=O)Cn3cc4cccnc4n3)CC2)c(F)cc1Cl [Compound 1.013] | < 1 µM
COc1cc(N2CCN(C(=O)Cn3nc(C)c4cccnc43)CC2)ccc1Cl [Compound 1.014] | 1 to 2.5 µM
COc1cc(N2CCN(C(=O)Cn3nc(-c4ncco4)c4cccnc43)CC2)ccc1Cl [Compound 1.015] | < 1 µM
COc1cc(N2CCN(C(=O)Cn3nc(F)c4cccnc43)CC2)ccc1Cl [Compound 1.016] | < 1 µM

SMILES | IC50
COc1cc(N2CCN(C(=O)Cn3nc(-c4ncco4)c4cccnc43)[C@@H](C)C2)c(F)cc1Cl [Compound 1.017] | < 1 µM
COc1cc(N2CCN(C(=O)Cn3cc4ccncc4n3)CC2)ccc1Cl [Compound 1.018] | < 1 µM
COc1cc(N2CCN(C(=O)Cn3ncc4ccncc43)CC2)ccc1Cl [Compound 1.019] | < 1 µM
COc1cc(N2CCN(C(=O)Cn3nc(-c4nccs4)c4cccnc43)[C@@H](C)C2)c(F)cc1Cl [Compound 1.021] | < 1 µM
COc1cc(N2CCN(C(=O)Cn3nc(-c4ccccn4)c4cccnc43)[C@@H](C)C2)c(F)cc1Cl [Compound 1.022] | < 1 µM
COc1cc(N2CCN(C(=O)Cn3nc(C)c4cccnc43)CC2)ccc1Cl [Compound 1.023] | < 1 µM
COc1cc(N2CCN(C(=O)Cn3nc(-c4nccs4)c4cccnc43)CC2)ccc1Cl [Compound 1.025] | < 1 µM
COc1cc(N2CCN(C(=O)Cn3nc(C#N)c4cccnc43)CC2)ccc1Cl [Compound 1.026] | < 1 µM
COc1cc(N2CCN(C(=O)Cn3cc4ncccc4n3)CC2)ccc1Cl [Compound 1.027] | < 1 µM
COc1cc(N2CCN(C(=O)Cn3ncc4ncccc43)CC2)ccc1Cl [Compound 1.028] | < 1 µM
COc1cc(N2CCN(C(=O)Cn3nc4ncccc4c3Cl)CC2)ccc1Cl [Compound 1.029] | < 1 µM
COc1cc(N2CCN(C(=O)Cn3ncc4ccc[n+]([O-])c43)CC2)ccc1Cl [Compound 1.030] | < 1 µM
COc1cc(N2CCN(C(=O)Cn3ncc4ccc(C)nc43)CC2)ccc1Cl [Compound 1.031] | < 1 µM
COc1cc(N2CCN(C(=O)Cn3cc4ccc(C)nc4n3)CC2)ccc1Cl [Compound 1.032] | < 1 µM
COc1cc(N2CCN(C(=O)Cn3nc(N4CCOCC4)c4cccnc43)CC2)ccc1Cl [Compound 1.033] | < 1 µM
COc1cc(N2CCN(C(=O)Cn3ncc4ccncc43)[C@@H](C)C2)c(F)cc1Cl [Compound 1.034] | < 1 µM
